# Calls of active or inactive are those of the source.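 How the source made its calls: active means compounds whose mean EC50, the dose giving half the maximal reporter activation, is at or below a set limit; inactive means the rest.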
# Molecular target: CHO-CHOP luciferase reporter, UPR activation, luminescence
# Assay: CHOP reporter induction, apoptotic UPR branch – CHO-CHOP cells, luciferase luminescence, confirmation (AID 489024);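 further: compounds added alone to reporter cells with no tunicamycin stress co-treatment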
row,Compound,EC50
1,O=C(CCl)Nc1cccc(CP(=O)(c2ccccc2)c2ccccc2)c1,> 80 µM (inactive)
2,COc1ccc(C2Nc3ccc4ccccc4c3-c3c2c(=O)oc2ccccc32)cc1 (stereo not drawn),> 80 µM (inactive)
3,S=C(Nc1ccccc1)Nc1nccs1,17.5 µM
4,CN1CCN(c2ccc(NC(=O)c3ccc([N+](=O)[O-])o3)cc2Cl)CC1,0.42 µM
5,CCOC(=O)c1c(C)oc2c1c(C(c1ccccc1)N1CCOCC1)c(O)c1ccccc12 (stereo not drawn),18 µM
6,Oc1c(CN2CCc3ccccc3C2)cc(Cl)c2cccnc12,12 µM
7,COc1ccc(C(C[N+](=O)[O-])n2nc(C)cc2C)cc1 (stereo not drawn),9.15 µM
8,CCc1nnc(NC(=O)c2nc(S(=O)(=O)Cc3ccc(C)cc3)ncc2Cl)s1,> 80 µM (inactive)
9,O=C(CCl)c1ccc(Cc2ncc(C(F)(F)F)cc2Cl)s1,9.69 µM
10,COc1cccc2sc(Nc3nnc(-c4cccs4)o3)nc12,6.83 µM
11,CCc1cccc2c(C(=O)CCl)c[nH]c12,15.7 µM
12,FC(F)(F)c1nnc2c(Sc3ccc(Cl)cc3)nc3ccccc3n12,4.12 µM
13,CN(C)S(=O)(=O)c1cccc(NC(=O)CSc2cccc3cccnc23)c1,7.59 µM
14,COc1ccc(/C=N/Nc2cc(C)nc(-n3nc(C)cc3C)n2)c(OC)c1,7.32 µM
15,COc1ccc(Cn2c(SCc3ccc(C)cc3)nc3cc(OC)c(OC)cc3c2=N)cc1Cl,14 µM
16,Cc1cc(C(=O)CCl)c(C)n1CCc1ccccc1,7.91 µM
17,O=C(/C=C/c1cccnc1)c1ccc(NC(=O)c2cccc(Br)c2)cc1,inactive
18,CCOc1cc(/C=N/Nc2cc(C)nc(-n3nc(C)cc3C)n2)ccc1O,13.6 µM
19,Cc1ccc(C(=O)Oc2ccc(Cl)c3cccnc23)cc1[N+](=O)[O-],inactive
20,O=C(Nc1nc(-c2ccccn2)cs1)c1ccc(Br)s1,8.23 µM
21,COc1ccc(-n2c(C)cc(C(=O)CCl)c2C)cc1,7.13 µM
22,O=C1/C(=C/c2ccc(N3CCOCC3)o2)SC(=Nc2ccccc2)N1CCc1c[nH]c2ccccc12,16.6 µM

row,Compound,EC50
1,COc1ccc(CNC[C@@H](CCCCN(C)Cc2ccc(OC)cc2)N2C[C@H](c3ccccc3)N(CCc3ccc(Cl)c(Cl)c3)C(=O)C2=O)cc1,7.73 µM
2,COc1nc(N)nc(NC(=O)c2cccs2)c1N=O,17.9 µM
3,C=CCN1C(=O)/C(=C/c2ccc3c(c2)CCCN3CCC)C(=O)NC1=S,14 µM
4,CCc1ccc2nc(N(CCCN(C)C)C(=O)c3ccc(S(=O)(=O)N(C)C4CCCCC4)cc3)sc2c1,10.6 µM
5,CC1=CC(=O)C(C(C)C)=C/C1=N/OC(=O)c1cccc([N+](=O)[O-])c1,> 80 µM (inactive)
6,O=C(/C(=C\c1ccccc1)c1nc2ccccc2[nH]1)c1ccc(Cl)cc1,8.43 µM
7,Cn1nnnc1Sc1ncnc2scc(-c3cc4ccccc4o3)c12,9.26 µM
8,C/C(=N\NC(=O)c1ccccc1OCc1ccc(F)cc1)c1ccccn1,4.89 µM
9,CCCCC1CCC(C(=O)N(CCCC)c2c(N)n(CCCC)c(=O)[nH]c2=O)CC1 (stereo not drawn),> 80 µM (inactive)
10,CCOC(=O)N1CCN(Cc2ccc(O)c3ncccc23)CC1,16.4 µM
11,O=C(Nc1nc(-c2ccc(F)c(F)c2)cs1)Nc1ccc(F)cc1F,> 80 µM (inactive)
12,CCCCCOc1ccc(N2C(=O)CC(N(O)c3ccccc3)C2=O)cc1 (stereo not drawn),12.3 µM
13,N#C/C(=C\c1ccc(OCc2ccccc2)cc1)C(=O)Nc1nc2c(s1)CCN(Cc1ccccc1)C2,inactive
14,COc1cc(C(=O)Sc2ccc(Cl)cc2)cc(OC)c1OC,15 µM
15,O=C1C(Cl)=C(NC(=O)c2ccccc2)C(=O)C(Cl)=C1NC(=O)c1ccccc1,> 80 µM (inactive)
16,O=[N+]([O-])c1ccc(Sc2cccc3cccnc23)c([N+](=O)[O-])c1,> 80 µM (inactive)
17,O=C(CSC(=S)N1CCCC1)c1cc(Br)cc(Br)c1O,inactive
18,Oc1ccc(-c2csc(Nc3ccccn3)n2)cc1O,3.7 µM
19,Cc1ccc(-c2cc(NC(=O)CCl)n(-c3ccccc3)n2)cc1,6.42 µM
20,C/C(=N\NC(=O)c1cc(Br)ccc1O)c1ccccn1,6.67 µM
21,Nc1nc(CC(=O)CSc2ccc(Cl)cc2)nc(Nc2ccc(F)cc2)n1,inactive

# Source: PubChem BioAssay AID489024 (Sanford-Burnham Center for Chemical Genomics, 2010)
